Measurements: ChEMBL document CHEMBL3407491, “Synthesis, characterization and in vitro photodynamic antimicrobial activity of basic amino acid-porphyrin conjugates” (Eur J Med Chem, 2015)
≈ marks a conversion by molar mass, not a printed value. Calls of active or inactive are those of the source. No cut-off for these calls is given here.

What was measured:
Escherichia coli [1] = assay: Antibacterial activity against Escherichia coli ATCC 25922 at 0.49 uM to 7.8 uM incubated in dark for 30 mins followed by exposure to light fluences at 650 nm and 6 J/cm2 and then incubated overnight measured after 24 hrs; assay type: functional, organism-based
Pseudomonas aeruginosa [2] = assay: Antibacterial activity against Pseudomonas aeruginosa ATCC 27853 incubated in dark for 30 mins measured after 24 hrs; assay type: functional
Pseudomonas aeruginosa [3] = assay: Antibacterial activity against Pseudomonas aeruginosa ATCC 27853 incubated in dark for 30 mins and grown for 24 hrs followed by further incubation on LB agar plates for another 24 hrs; assay type: functional
[4] = Singlet oxygen generation of the compound exposed to 4.2 mW/cm2 light energy density assessed as singlet oxygen quantum yield measured at 410 nm in 10 seconds intervals of irradiation at 0.2 uM by DPBF scavenger based assay
Escherichia coli [5] = assay: Antibacterial activity against Escherichia coli ATCC 25922 incubated in dark for 30 mins and grown for 24 hrs followed by further incubation on LB agar plates for another 24 hrs; assay type: functional
Staphylococcus aureus [6] = assay: Antibacterial activity against methicillin-resistant Staphylococcus aureus incubated in dark for 30 mins measured after 24 hrs; assay type: functional
Pseudomonas aeruginosa [7] = assay: Antibacterial activity against Pseudomonas aeruginosa ATCC 27853 at 0.49 uM to 7.8 uM incubated in dark for 30 mins followed by exposure to light fluences at 650 nm and 6 J/cm2 and then incubated overnight measured after 24 hrs; assay type: functional, organism-based
Escherichia coli [8] = assay: Antibacterial activity against Escherichia coli ATCC 25922 at 3.91 uM to 62.50 uM incubated in dark for 30 mins followed by exposure to light fluences at 650 nm and 6 J/cm2 and then incubated overnight measured after 24 hrs; assay type: functional, organism-based
Pseudomonas aeruginosa [9] = assay: Antibacterial activity against Pseudomonas aeruginosa ATCC 27853 incubated in dark for 30 mins followed by exposure to light fluences at 650 nm and 6 J/cm2 and then incubated overnight measured after 24 hrs; assay type: functional; conditions: ATCC 27853, light or radiation study
Pseudomonas aeruginosa [10] = assay: Antibacterial activity against Pseudomonas aeruginosa ATCC 27853 at 3.91 uM to 62.50 uM incubated in dark for 30 mins followed by exposure to light fluences at 650 nm and 6 J/cm2 and then incubated overnight measured after 24 hrs; assay type: functional, organism-based
Staphylococcus aureus [11] = assay: Antibacterial activity against methicillin-resistant Staphylococcus aureus incubated in dark for 30 mins and grown for 24 hrs followed by further incubation on LB agar plates for another 24 hrs; assay type: functional
Pseudomonas aeruginosa [12] = assay: Bactericidal activity against Pseudomonas aeruginosa ATCC 27853 incubated in dark for 30 mins followed by exposure to light fluences at 650 nm and 6 J/cm2 and then incubated overnight followed by further incubation on LB agar plates for another 24 hrs; assay type: functional; conditions: ATCC 27853, light or radiation study
Staphylococcus aureus [13] = assay: Bactericidal activity against methicillin-resistant Staphylococcus aureus incubated in dark for 30 mins followed by exposure to light fluences at 650 nm and 6 J/cm2 and then incubated overnight followed by further incubation on LB agar plates for another 24 hrs; assay type: functional; conditions: light or radiation study
Staphylococcus aureus [14] = assay: Antibacterial activity against methicillin-resistant Staphylococcus aureus incubated in dark for 30 mins followed by exposure to light fluences at 650 nm and 6 J/cm2 and then incubated overnight measured after 24 hrs; assay type: functional; conditions: light or radiation study
[15] = Octanol water partition coefficient, log P of the compound by reverse-phase thin-layer chromatography; assay type: physicochemical
Escherichia coli [16] = assay: Antibacterial activity against Escherichia coli ATCC 25922 incubated in dark for 30 mins measured after 24 hrs; assay type: functional
Staphylococcus aureus [17] = assay: Antibacterial activity against methicillin-resistant Staphylococcus aureus at 0.49 uM to 7.8 uM incubated in dark for 30 mins followed by exposure to light fluences at 650 nm and 6 J/cm2 and then incubated overnight measured after 24 hrs; assay type: functional, organism-based
Escherichia coli [18] = assay: Antibacterial activity against Escherichia coli ATCC 25922 incubated in dark for 30 mins followed by exposure to light fluences at 650 nm and 6 J/cm2 and then incubated overnight measured after 24 hrs; assay type: functional; conditions: ATCC 25922, light or radiation study
[19] = Photostability at 2 x 10^-5 mol/L exposed to 4.2 mW/cm2 light energy density assessed as change in absorption spectra after 30 mins post irradiation; assay type: physicochemical; conditions: 0.5 h, 20 µM
Escherichia coli [20] = assay: Bactericidal activity against Escherichia coli ATCC 25922 incubated in dark for 30 mins followed by exposure to light fluences at 650 nm and 6 J/cm2 and then incubated overnight followed by further incubation on LB agar plates for another 24 hrs; assay type: functional; conditions: ATCC 25922, light or radiation study

| Compound | Activity (Escherichia coli [1]) | MIC (Pseudomonas aeruginosa [2]) [µM] | MBC (Pseudomonas aeruginosa [3]) [µM] | Activity [4] | MBC (Escherichia coli [5]) [µM] | MIC (Staphylococcus aureus [6]) [µM] | Activity (Pseudomonas aeruginosa [7]) | Activity (Escherichia coli [8]) | MIC (Pseudomonas aeruginosa [9]) [µM] | Activity (Pseudomonas aeruginosa [10]) | MBC (Staphylococcus aureus [11]) [µM] | MBC (Pseudomonas aeruginosa [12]) [µM] | MBC (Staphylococcus aureus [13]) [µM] | MIC (Staphylococcus aureus [14]) [µM] | logP [15] | MIC (Escherichia coli [16]) [µM] | Activity (Staphylococcus aureus [17]) | MIC (Escherichia coli [18]) [µM] | Activity [19] [%] | MBC (Escherichia coli [20]) [µM] |
| --- | --- | --- | --- | --- | --- | --- | --- | --- | --- | --- | --- | --- | --- | --- | --- | --- | --- | --- | --- | --- |
| N=C(N)NCCC[C@H](N)C(=O)Nc1ccc(-c2c3nc(c(-c4ccc(N)cc4)c4ccc([nH]4)c(-c4ccc(N)cc4)c4nc(c(-c5ccc(N)cc5)c5ccc2[nH]5)C=C4)C=C3)cc1 | inactive | 62.5 (≈ 51.9 µg/mL) | 250 (≈ 208 µg/mL) | 0.47 | 125 (≈ 104 µg/mL) | 62.5 (≈ 51.9 µg/mL) | inactive | inactive | 62.5 (≈ 51.9 µg/mL) | inactive | 500 (≈ 416 µg/mL) | 250 (≈ 208 µg/mL) | 500 (≈ 416 µg/mL) | 62.5 (≈ 51.9 µg/mL) | 1.25 | 62.5 (≈ 51.9 µg/mL) | inactive | 62.5 (≈ 51.9 µg/mL) | < 20 | 125 (≈ 104 µg/mL) |
| NCCCC[C@H](N)C(=O)Nc1ccc(-c2c3nc(c(-c4ccc(N)cc4)c4ccc([nH]4)c(-c4ccc(N)cc4)c4nc(c(-c5ccc(N)cc5)c5ccc2[nH]5)C=C4)C=C3)cc1 | – | 250 (≈ 201 µg/mL) | > 500 | 0.17 | 500 (≈ 401 µg/mL) | 250 (≈ 201 µg/mL) | – | – | 500 (≈ 401 µg/mL) | – | > 500 | > 500 | 500 (≈ 401 µg/mL) | 250 (≈ 201 µg/mL) | 1.4 | 250 (≈ 201 µg/mL) | – | 250 (≈ 201 µg/mL) | < 20 | 500 (≈ 401 µg/mL) |
| Nc1ccc(-c2c3nc(c(-c4ccccc4)c4ccc([nH]4)c(-c4ccccc4)c4nc(c(-c5ccccc5)c5ccc2[nH]5)C=C4)C=C3)cc1 | inactive | 125 (≈ 78.7 µg/mL) | 250 (≈ 157 µg/mL) | – | 500 (≈ 315 µg/mL) | 125 (≈ 78.7 µg/mL) | inactive | inactive | 62.5 (≈ 39.4 µg/mL) | inactive | 500 (≈ 315 µg/mL) | 125 (≈ 78.7 µg/mL) | 500 (≈ 315 µg/mL) | 125 (≈ 78.7 µg/mL) | – | 125 (≈ 78.7 µg/mL) | inactive | 62.5 (≈ 39.4 µg/mL) | < 20 | 125 (≈ 78.7 µg/mL) |
| NCCCC[C@H](N)C(=O)Nc1ccc(-c2c3nc(c(-c4ccc(N)cc4)c4ccc([nH]4)c(-c4ccccc4)c4nc(c(-c5ccccc5)c5ccc2[nH]5)C=C4)C=C3)cc1 | – | 125 (≈ 96.6 µg/mL) | 250 (≈ 193 µg/mL) | 0.24 | 125 (≈ 96.6 µg/mL) | 125 (≈ 96.6 µg/mL) | – | – | 62.5 (≈ 48.3 µg/mL) | – | 250 (≈ 193 µg/mL) | 125 (≈ 96.6 µg/mL) | 125 (≈ 96.6 µg/mL) | 62.5 (≈ 48.3 µg/mL) | 1.47 | 62.5 (≈ 48.3 µg/mL) | – | 62.5 (≈ 48.3 µg/mL) | < 20 | 125 (≈ 96.6 µg/mL) |
| N=C(N)NCCC[C@H](N)C(=O)Nc1ccc(-c2c3nc(c(-c4ccccc4)c4ccc([nH]4)c(-c4ccccc4)c4nc(c(-c5ccccc5)c5ccc2[nH]5)C=C4)C=C3)cc1 | inactive | 125 (≈ 98.2 µg/mL) | 250 (≈ 196 µg/mL) | 0.71 | 125 (≈ 98.2 µg/mL) | 125 (≈ 98.2 µg/mL) | inactive | inactive | 62.5 (≈ 49.1 µg/mL) | inactive | 250 (≈ 196 µg/mL) | 125 (≈ 98.2 µg/mL) | 125 (≈ 98.2 µg/mL) | 62.5 (≈ 49.1 µg/mL) | 1.45 | 62.5 (≈ 49.1 µg/mL) | inactive | 62.5 (≈ 49.1 µg/mL) | < 20 | 125 (≈ 98.2 µg/mL) |
| NCCCC[C@H](N)C(=O)Nc1ccc(-c2c3nc(c(-c4ccccc4)c4ccc([nH]4)c(-c4ccc(N)cc4)c4nc(c(-c5ccccc5)c5ccc2[nH]5)C=C4)C=C3)cc1 | – | 125 (≈ 96.6 µg/mL) | 250 (≈ 193 µg/mL) | 0.27 | 125 (≈ 96.6 µg/mL) | 125 (≈ 96.6 µg/mL) | – | – | 62.5 (≈ 48.3 µg/mL) | – | 250 (≈ 193 µg/mL) | 125 (≈ 96.6 µg/mL) | 250 (≈ 193 µg/mL) | 62.5 (≈ 48.3 µg/mL) | 1.46 | 62.5 (≈ 48.3 µg/mL) | – | 62.5 (≈ 48.3 µg/mL) | < 20 | 125 (≈ 96.6 µg/mL) |
| Nc1ccc(-c2c3nc(c(-c4ccc(N)cc4)c4ccc([nH]4)c(-c4ccccc4)c4nc(c(-c5ccccc5)c5ccc2[nH]5)C=C4)C=C3)cc1 | inactive | 125 (≈ 80.6 µg/mL) | 250 (≈ 161 µg/mL) | – | 250 (≈ 161 µg/mL) | 125 (≈ 80.6 µg/mL) | inactive | inactive | 62.5 (≈ 40.3 µg/mL) | inactive | 500 (≈ 322 µg/mL) | 125 (≈ 80.6 µg/mL) | 250 (≈ 161 µg/mL) | 125 (≈ 80.6 µg/mL) | – | 125 (≈ 80.6 µg/mL) | inactive | 62.5 (≈ 40.3 µg/mL) | < 20 | 125 (≈ 80.6 µg/mL) |
| Nc1ccc(-c2c3nc(c(-c4ccccc4)c4ccc([nH]4)c(-c4ccc(N)cc4)c4nc(c(-c5ccccc5)c5ccc2[nH]5)C=C4)C=C3)cc1 | inactive | 125 (≈ 80.6 µg/mL) | 250 (≈ 161 µg/mL) | – | > 500 | 62.5 (≈ 40.3 µg/mL) | inactive | inactive | 125 (≈ 80.6 µg/mL) | inactive | 125 (≈ 80.6 µg/mL) | 250 (≈ 161 µg/mL) | 125 (≈ 80.6 µg/mL) | 62.5 (≈ 40.3 µg/mL) | – | > 500 | inactive | 125 (≈ 80.6 µg/mL) | < 20 | 500 (≈ 322 µg/mL) |
| Nc1ccc(-c2c3nc(c(-c4ccc(N)cc4)c4ccc([nH]4)c(-c4ccc(N)cc4)c4nc(c(-c5ccc(N)cc5)c5ccc2[nH]5)C=C4)C=C3)cc1 | – | 125 (≈ 84.4 µg/mL) | 250 (≈ 169 µg/mL) | – | 250 (≈ 169 µg/mL) | 125 (≈ 84.4 µg/mL) | – | – | 125 (≈ 84.4 µg/mL) | – | 500 (≈ 337 µg/mL) | 250 (≈ 169 µg/mL) | 125 (≈ 84.4 µg/mL) | 62.5 (≈ 42.2 µg/mL) | – | 125 (≈ 84.4 µg/mL) | – | 125 (≈ 84.4 µg/mL) | – | 250 (≈ 169 µg/mL) |
| C1=Cc2nc1c(-c1ccccc1)c1ccc([nH]1)c(-c1ccccc1)c1nc(c(-c3ccccc3)c3ccc([nH]3)c2-c2ccccc2)C=C1 | – | – | – | 0.64 | – | – | – | – | – | – | – | – | – | – | – | – | – | – | – | – |
